Experimental data taken from the supplement of paper PMC4862054.

How the values were obtained:
Conditions in all cases: incubation time: 72 h
HDQ-P1 [1] = assay: normalised viability (% of control), CellTiter-Blue; higher = more viable cells (about 100 = DMSO control)
Protocol: (§1)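 DSRT, CellTiter-Blue viability, 72 h incubation. Signal is normalised to DMSO and benzethonium chloride controls. Value is the normalised response at dose 6.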

MDA-MB-453 [2] = assay: as above
Protocol: as §1

DU-4475 = assay: normalised viability (% of control), CellTiter-Blue; higher = more viable cells (about 100 = DMSO control)
How it was run: (§2)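 Breast cancer cell lines were treated for 72 h in 384-well format and measured by CellTiter-Blue fluorescence at 560/590 nm. Results were normalised per plate to vehicle (100) and a positive kill control (0). The entry is normalised viability at a single listed concentration of the series.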

Hs578T [3] = assay: as above
How it was run: as §2

HCC1599 = assay: as above
How it was run: as §2

HCC1143 = assay: as above
How it was run: as §2

CAL-148 = assay: as above
How it was run: as §2

MDA-MB-468 = assay: as above
How it was run: as §2

CAL-51 = assay: as above
How it was run: as §2

MDA-MB-231 = assay: as above
How it was run: as §2

HDQ-P1 [4] = assay: as above; remark: listed apart in the source
How it was run: as §2

CAL-120 = assay: as above
How it was run: as §2

MDA-MB-436 [5] = assay: as above
How it was run: as §2

BT-549 = assay: as above
How it was run: as §2

MFM-223 = assay: as above
How it was run: as §2

MDA-MB-453 [6] = assay: as above; remark: listed apart in the source
How it was run: as §2

HCC1937 [7] = assay: as above
How it was run: as §2

SK-BR-3 = assay: as above
How it was run: as §2

CAL-85-1 = assay: as above
How it was run: as §2

BT-474 = assay: as above
How it was run: as §2

Hs578T [8] = assay: drug sensitivity score (DSS), CellTiter-Blue viability (DSS (AUC-based score)); higher = stronger viability inhibition; extreme values may be limits of the assay
How it was run: (§3)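 Drug sensitivity scores correspond to the area under the fitted dose-response curve. Breast cancer cell lines were incubated 72 h with compound at 5 or 9 concentrations in 384-well plates. Viability, read as CellTiter-Blue fluorescence at 560/590 nm, was normalised per plate to 0.1 % DMSO and a positive kill control.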

MDA-MB-436 [9] = assay: as above
How it was run: as §3

HCC1937 [10] = assay: as above
How it was run: as §3

Nc1ccccc1NC(=O)c1ccc(CNC(=O)OCc2cccnc2)cc1 [Entinostat]
Conditions | normalised viability [%]
BT-474, 10 nM | 108
BT-474, 1000 nM | 97
BT-474, 10000 nM | 31.9
BT-549, 10 nM | 110
BT-549, 1000 nM | 102
BT-549, 10000 nM | 61.4
CAL-51, 3 nM | 116
CAL-51, 30 nM | 106
CAL-51, 100 nM | 109
CAL-85-1, 3 nM | 98.1
CAL-85-1, 30 nM | 100
CAL-85-1, 100 nM | 99.6
CAL-120, 10 nM | 90.1
CAL-120, 1000 nM | 57.9
CAL-120, 10000 nM | 30.8
CAL-148, 3 nM | 85.4
CAL-148, 30 nM | 84.9
CAL-148, 100 nM | 86.7
DU-4475, 3 nM | 117
DU-4475, 30 nM | 117
DU-4475, 100 nM | 105
HCC1143, 10 nM | 84.5
HCC1143, 1000 nM | 89.6
HCC1143, 10000 nM | 31.2
HCC1599, 10 nM | 122
HCC1599, 1000 nM | 86.6
HCC1599, 10000 nM | 19.6
HCC1937 [7], 10 nM | 124
HCC1937 [7], 1000 nM | 82.4
HCC1937 [7], 10000 nM | 56.8
HDQ-P1 [1], 300 nM | 72
HDQ-P1 [4], 3 nM | 103
HDQ-P1 [4], 30 nM | 110
HDQ-P1 [4], 100 nM | 102
Hs578T [3], 10 nM | 100
Hs578T [3], 1000 nM | 97.6
Hs578T [3], 10000 nM | 25
MDA-MB-231, 10 nM | 99.2
MDA-MB-231, 1000 nM | 78.7
MDA-MB-231, 10000 nM | 37.7
MDA-MB-436 [5], 10 nM | 115
MDA-MB-436 [5], 1000 nM | 96
MDA-MB-436 [5], 10000 nM | 52.8
MDA-MB-453 [2], 300 nM | 103
MDA-MB-453 [6], 3 nM | 132
MDA-MB-453 [6], 30 nM | 130
MDA-MB-453 [6], 100 nM | 110
MDA-MB-468, 10 nM | 102
MDA-MB-468, 1000 nM | 79.8
MDA-MB-468, 10000 nM | 22.9
MFM-223, 10 nM | 110
MFM-223, 1000 nM | 93.6
MFM-223, 10000 nM | 19.9
SK-BR-3, 10 nM | 108
SK-BR-3, 1000 nM | 45.2
SK-BR-3, 10000 nM | 2.8

Conditions | drug sensitivity score
HCC1937 [10] | 4.61
Hs578T [8] | 2.77
MDA-MB-436 [9] | 0

CC[C@@H]1C(=O)N(C)c2cnc(Nc3ccc(C(=O)NC4CCN(C)CC4)cc3OC)nc2N1C1CCCC1 [BI 2536]
Conditions | normalised viability [%]
BT-474, 1 nM | 116
BT-474, 100 nM | 89.1
BT-474, 1000 nM | 100
BT-549, 1 nM | 85.2
BT-549, 100 nM | 38.6
BT-549, 1000 nM | 44.2
CAL-51, 0.3 nM | 99.2
CAL-51, 3 nM | 90.5
CAL-51, 10 nM | 63.9
CAL-85-1, 0.3 nM | 101
CAL-85-1, 3 nM | 79.7
CAL-85-1, 10 nM | 40.5
CAL-120, 1 nM | 97.5
CAL-120, 100 nM | 28.6
CAL-120, 1000 nM | 30.6
CAL-148, 0.3 nM | 96.9
CAL-148, 3 nM | 92.9
CAL-148, 10 nM | 26.2
DU-4475, 0.3 nM | 105
DU-4475, 3 nM | 86.5
DU-4475, 10 nM | 50.6
HCC1143, 1 nM | 109
HCC1143, 100 nM | 51.3
HCC1143, 1000 nM | 52.4
HCC1599, 1 nM | 78.7
HCC1599, 100 nM | 81.5
HCC1599, 1000 nM | 61.3
HCC1937 [7], 1 nM | 107
HCC1937 [7], 100 nM | 24
HCC1937 [7], 1000 nM | 28.3
HDQ-P1 [1], 30 nM | 43.6
HDQ-P1 [4], 0.3 nM | 126
HDQ-P1 [4], 3 nM | 77
HDQ-P1 [4], 10 nM | 74.2
Hs578T [3], 1 nM | 114
Hs578T [3], 100 nM | 29.9
Hs578T [3], 1000 nM | 65.3
MDA-MB-231, 1 nM | 103
MDA-MB-231, 100 nM | 41.8
MDA-MB-231, 1000 nM | 41
MDA-MB-436 [5], 1 nM | 95.7
MDA-MB-436 [5], 100 nM | 65.3
MDA-MB-436 [5], 1000 nM | 78.5
MDA-MB-453 [2], 30 nM | 28.4
MDA-MB-453 [6], 0.3 nM | 97.8
MDA-MB-453 [6], 3 nM | 56.6
MDA-MB-453 [6], 10 nM | 32.6
MDA-MB-468, 1 nM | 107
MDA-MB-468, 100 nM | 52.2
MDA-MB-468, 1000 nM | 55.1
MFM-223, 1 nM | 87.2
MFM-223, 100 nM | 48.6
MFM-223, 1000 nM | 48.5
SK-BR-3, 1 nM | 99.7
SK-BR-3, 100 nM | 18.4
SK-BR-3, 1000 nM | 23.1

Conditions | drug sensitivity score
HCC1937 [10] | 22.8
Hs578T [8] | 8.18
MDA-MB-436 [9] | 7.37

NCCCNCCSP(=O)(O)O [Amifostine]
Conditions | normalised viability [%]
BT-474, 10 nM | 94.2
BT-474, 1000 nM | 94.5
BT-474, 10000 nM | 111
BT-549, 10 nM | 81.4
BT-549, 1000 nM | 96.6
BT-549, 10000 nM | 93.3
CAL-51, 3 nM | 113
CAL-51, 30 nM | 106
CAL-51, 100 nM | 107
CAL-85-1, 3 nM | 97.5
CAL-85-1, 30 nM | 88
CAL-85-1, 100 nM | 87.2
CAL-120, 10 nM | 71.9
CAL-120, 1000 nM | 84.1
CAL-120, 10000 nM | 82.1
CAL-148, 3 nM | 97.6
CAL-148, 30 nM | 93.9
CAL-148, 100 nM | 96.5
DU-4475, 3 nM | 85.9
DU-4475, 30 nM | 93.9
DU-4475, 100 nM | 86.4
HCC1143, 10 nM | 79.2
HCC1143, 1000 nM | 84
HCC1143, 10000 nM | 75.2
HCC1599, 10 nM | 102
HCC1599, 1000 nM | 72.4
HCC1599, 10000 nM | 81.7
HCC1937 [7], 10 nM | 79.2
HCC1937 [7], 1000 nM | 95
HCC1937 [7], 10000 nM | 89.5
HDQ-P1 [1], 300 nM | 63.9
HDQ-P1 [4], 3 nM | 101
HDQ-P1 [4], 30 nM | 95.5
HDQ-P1 [4], 100 nM | 84.8
Hs578T [3], 10 nM | 101
Hs578T [3], 1000 nM | 104
Hs578T [3], 10000 nM | 95.6
MDA-MB-231, 10 nM | 86.7
MDA-MB-231, 1000 nM | 101
MDA-MB-231, 10000 nM | 86.5
MDA-MB-436 [5], 10 nM | 135
MDA-MB-436 [5], 1000 nM | 91.8
MDA-MB-436 [5], 10000 nM | 86.2
MDA-MB-453 [2], 300 nM | 105
MDA-MB-453 [6], 3 nM | 102
MDA-MB-453 [6], 30 nM | 81
MDA-MB-453 [6], 100 nM | 86.7
MDA-MB-468, 10 nM | 102
MDA-MB-468, 1000 nM | 93
MDA-MB-468, 10000 nM | 91.3
MFM-223, 10 nM | 81.8
MFM-223, 1000 nM | 82.1
MFM-223, 10000 nM | 96.4
SK-BR-3, 10 nM | 81.9
SK-BR-3, 1000 nM | 92.6
SK-BR-3, 10000 nM | 93.3

Conditions | drug sensitivity score
HCC1937 [10] | 0
Hs578T [8] | 0
MDA-MB-436 [9] | 0
